Measurements published in US20210338629A1, “ORAL FORMULATIONS OF PHENYLALANINE AND CANNABINOIDS” (priority 2018, published 2021).
pIC50, pKi: −log10 of the molar value. Read-outs that look alike come from different tables or passages of the source.

Assays:
[1] = tested on: glutamatergic synapses in hippocampus and cortex; details: cited from earlier work
human CB1R [2] = target: T1, human CB1R (Homo sapiens, UniProt P21554); format: cell-based
T1 construct: expressed in transfected cells; host or cells: HEK293T (HEK293T-CB1), transiently co-transfected with the CRE-luc reporter

human CB1R [3] = target: T1, human CB1R; format: cell-based; details: for Effect of the cannabinoid on the DLPA effect (DLPA alone vs combos): FIG. 5A-5C
[4] = tested on: neuropathic and chronic pain; details: 1,000 mg given ×1 (once a day); cited from earlier work
[5] = cited from earlier work
inflammation = details: co-administered with THC; cited from earlier work
[6] = target: α2δ Ca2+ calcium channels; details: antagonist; cited from earlier work
[7] = DLPA 1 mM, alone or + 10 μM THCA or THC
[8] = DLPA 2.5 mM, alone or + 10 μM THCA or THC
[9] = DLPA 5 mM, alone or + 10 μM THCA or THC
[10] = DLPA 7.5 mM, alone or + 10 μM THCA or THC
[11] = DLPA 10 mM, alone or + 10 μM THCA or THC
[12] = DLPA 1 mM, alone or + 10 μM THCA, 1 μM CBD or 10 μM THC
[13] = DLPA 2.5 mM, alone or + 10 μM THCA, 1 μM CBD or 10 μM THC
[14] = DLPA 5 mM, alone or + 10 μM THCA, 1 μM CBD or 10 μM THC
[15] = DLPA 7.5 mM, alone or + 10 μM THCA, 1 μM CBD or 10 μM THC
[16] = DLPA 10 mM, alone or + 10 μM THCA, 1 μM CBD or 10 μM THC
[17] = THCA or THC without DLPA, 10 μM

T1 sequence (P21554 whole entry): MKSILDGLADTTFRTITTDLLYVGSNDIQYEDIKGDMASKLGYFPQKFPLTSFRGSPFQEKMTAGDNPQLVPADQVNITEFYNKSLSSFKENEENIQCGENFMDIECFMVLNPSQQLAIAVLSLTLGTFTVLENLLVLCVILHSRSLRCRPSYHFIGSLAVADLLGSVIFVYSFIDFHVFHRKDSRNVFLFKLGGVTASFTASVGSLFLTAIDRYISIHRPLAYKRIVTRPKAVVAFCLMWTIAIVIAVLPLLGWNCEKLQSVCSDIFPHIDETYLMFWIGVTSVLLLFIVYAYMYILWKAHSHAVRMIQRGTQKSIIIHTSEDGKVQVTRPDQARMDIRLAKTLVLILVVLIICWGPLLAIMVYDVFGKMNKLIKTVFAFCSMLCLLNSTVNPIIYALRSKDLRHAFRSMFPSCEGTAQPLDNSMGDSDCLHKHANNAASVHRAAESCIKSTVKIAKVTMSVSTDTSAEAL

N[C@H](Cc1ccccc1)C(=O)O [D-phenylalanine]
Effect on neurotransmitter release (in words) ([1]; compared with L-Phenylalanine): significantly smaller effect

NC(Cc1ccccc1)C(=O)O (racemic) [DLPA, DL-Phenylalanine]
Conclusions: Is CB1R agonist effect observed? (human CB1R [2]; [7]): Negative (Only treatments that the mean of three consecutive independent experiments shows a positive result: CB1R activity ≥2.5-fold increase or ≥4-fold increase are considered CB1R agonists or CB1R positive allosteric modulators)
Experiment 1 Fold change (human CB1R [2]; [7]): 0.9 fold change
Experiment 2 Fold change (human CB1R [2]; [7]): 0.9 fold change
Experiment 3 Fold change (human CB1R [2]; [7]): 1.0 fold change
Conclusions: Is CB1R agonist effect observed? (human CB1R [2]; [8]): Negative (Only treatments that the mean of three consecutive independent experiments shows a positive result: CB1R activity ≥2.5-fold increase or ≥4-fold increase are considered CB1R agonists or CB1R positive allosteric modulators)
Experiment 1 Fold change (human CB1R [2]; [8]): 1.0 fold change
Experiment 2 Fold change (human CB1R [2]; [8]): 0.9 fold change
Experiment 3 Fold change (human CB1R [2]; [8]): 0.9 fold change
Conclusions: Is CB1R agonist effect observed? (human CB1R [2]; [9]): Negative (Only treatments that the mean of three consecutive independent experiments shows a positive result: CB1R activity ≥2.5-fold increase or ≥4-fold increase are considered CB1R agonists or CB1R positive allosteric modulators)
Experiment 1 Fold change (human CB1R [2]; [9]): 0.8 fold change
Experiment 2 Fold change (human CB1R [2]; [9]): 0.8 fold change
Experiment 3 Fold change (human CB1R [2]; [9]): 0.7 fold change
Conclusions: Is CB1R agonist effect observed? (human CB1R [2]; [10]): Negative (Only treatments that the mean of three consecutive independent experiments shows a positive result: CB1R activity ≥2.5-fold increase or ≥4-fold increase are considered CB1R agonists or CB1R positive allosteric modulators)
Experiment 1 Fold change (human CB1R [2]; [10]): 1.0 fold change
Experiment 2 Fold change (human CB1R [2]; [10]): 0.8 fold change
Experiment 3 Fold change (human CB1R [2]; [10]): 1.0 fold change
Conclusions: Is CB1R agonist effect observed? (human CB1R [2]; [11]): Negative (Only treatments that the mean of three consecutive independent experiments shows a positive result: CB1R activity ≥2.5-fold increase or ≥4-fold increase are considered CB1R agonists or CB1R positive allosteric modulators)
Experiment 1 Fold change (human CB1R [2]; [11]): 1.1 fold change
Experiment 2 Fold change (human CB1R [2]; [11]): 1.0 fold change
Experiment 3 Fold change (human CB1R [2]; [11]): 1.0 fold change
CB1R agonistic activity (in words) (human CB1R [2]; all tested concentrations, DLPA 1-10 mM, THC or THCA 10 μM): did not show CB1R agonistic activity
Conclusions: Is CB1R positive allosteric agonism effect observed? (human CB1R [3]; [12]): Negative (Only treatments that the mean of three consecutive independent experiments shows a positive result (CB1R activity ≥4-fold change) are considered positive CB1R allosteric agonists)
Experiment 1 Fold change (human CB1R [3]; [12]): 2.7 fold change
Experiment 2 Fold change (human CB1R [3]; [12]): 2.5 fold change
Experiment 3 Fold change (human CB1R [3]; [12]): 3.0 fold change
Conclusions: Is CB1R positive allosteric agonism effect observed? (human CB1R [3]; [13]): Negative (Only treatments that the mean of three consecutive independent experiments shows a positive result (CB1R activity ≥4-fold change) are considered positive CB1R allosteric agonists)
Experiment 1 Fold change (human CB1R [3]; [13]): 2.4 fold change
Experiment 2 Fold change (human CB1R [3]; [13]): 2.1 fold change
Experiment 3 Fold change (human CB1R [3]; [13]): 4.0 fold change
Conclusions: Is CB1R positive allosteric agonism effect observed? (human CB1R [3]; [14]): Negative (Only treatments that the mean of three consecutive independent experiments shows a positive result (CB1R activity ≥4-fold change) are considered positive CB1R allosteric agonists)
Experiment 1 Fold change (human CB1R [3]; [14]): 3.1 fold change
Experiment 2 Fold change (human CB1R [3]; [14]): 2.7 fold change
Experiment 3 Fold change (human CB1R [3]; [14]): 2.9 fold change
Conclusions: Is CB1R positive allosteric agonism effect observed? (human CB1R [3]; [15]): Negative (Only treatments that the mean of three consecutive independent experiments shows a positive result (CB1R activity ≥4-fold change) are considered positive CB1R allosteric agonists)
Experiment 1 Fold change (human CB1R [3]; [15]): 3.1 fold change
Experiment 2 Fold change (human CB1R [3]; [15]): 3.1 fold change
Experiment 3 Fold change (human CB1R [3]; [15]): 5.0 fold change
Conclusions: Is CB1R positive allosteric agonism effect observed? (human CB1R [3]; [16]): Allosterism (An increase of the fold change ≥4-fold indicates CB1R positive allosteric agonistic activity)
Experiment 1 Fold change (human CB1R [3]; [16]): 4.0 fold change
Experiment 2 Fold change (human CB1R [3]; [16]): 3.5 fold change
Experiment 3 Fold change (human CB1R [3]; [16]): 6.5 fold change
CB1R positive allosteric effect (in words) (human CB1R [3]; on CP-55940 activity, dose-response curve, FIG. 4): clear CB1R positive allosteric effect
Relief of neuropathic and chronic pain [4]: beneficial

CCCCCCC(C)(C)c1ccc([C@@H]2C[C@H](O)CC[C@H]2CCCO)c(O)c1 [CP, reference compound]
Experiment 1 Fold change (human CB1R [2]): 2.5 fold change
Experiment 2 Fold change (human CB1R [2]): 2.5 fold change
Experiment 3 Fold change (human CB1R [2]): 2.5 fold change
Experiment 1 Fold change (human CB1R [3]): 2.5 fold change
Experiment 2 Fold change (human CB1R [3]): 2.5 fold change
Experiment 3 Fold change (human CB1R [3]): 2.5 fold change

C=C(C)[C@@H]1CCC(C)=C[C@H]1c1c(O)cc(CCCCC)cc1O [CBD, cannabidiol, reference compound]
Conclusions: Is CB1R positive allosteric agonism effect observed? (human CB1R [3]; CBD without DLPA, 1 μM): Negative (Only treatments that the mean of three consecutive independent experiments shows a positive result (CB1R activity ≥4-fold change) are considered positive CB1R allosteric agonists)
Experiment 1 Fold change (human CB1R [3]; CBD without DLPA, 1 μM): 1.4 fold change
Experiment 2 Fold change (human CB1R [3]; CBD without DLPA, 1 μM): 1.5 fold change
Experiment 3 Fold change (human CB1R [3]; CBD without DLPA, 1 μM): 1.4 fold change
Effect of the cannabinoid on the DLPA effect (DLPA alone vs combos) (human CB1R [3]): blocked not only the DLPA CB1R allosteric activity, but also the agonistic activity of CP-55940

CCCCCc1cc2c(c(O)c1C(=O)O)[C@@H]1C=C(C)CC[C@H]1C(C)(C)O2 [THCA, tetrahydrocannabinolic acid]
Conclusions: Is CB1R agonist effect observed? (human CB1R [2]; THCA or THC alone, 10 μM): Negative (Only treatments that the mean of three consecutive independent experiments shows a positive result: CB1R activity ≥2.5-fold increase or ≥4-fold increase are considered CB1R agonists or CB1R positive allosteric modulators)
Experiment 1 Fold change (human CB1R [2]; THCA or THC alone, 10 μM): 0.8 fold change
Experiment 2 Fold change (human CB1R [2]; THCA or THC alone, 10 μM): 1.0 fold change
Experiment 3 Fold change (human CB1R [2]; THCA or THC alone, 10 μM): 1.0 fold change
Effect of the cannabinoid on the DLPA effect (DLPA alone vs combos) (human CB1R [3]): did not modify the DLPA effect
Conclusions: Is CB1R positive allosteric agonism effect observed? (human CB1R [3]; [17]): Negative (Only treatments that the mean of three consecutive independent experiments shows a positive result (CB1R activity ≥4-fold change) are considered positive CB1R allosteric agonists)
Experiment 1 Fold change (human CB1R [3]; [17]): 2.2 fold change
Experiment 2 Fold change (human CB1R [3]; [17]): 3.1 fold change
Experiment 3 Fold change (human CB1R [3]; [17]): 2.8 fold change
Decarboxylation by gastric acids [5]: do not decarboxylate

C=C(C)[C@@H]1CCC(C)=C[C@H]1c1c(O)cc(CCCCC)c(C(=O)O)c1O [CBDA, cannabidiolic acid]
Decarboxylation by gastric acids [5]: do not decarboxylate

CCCCCc1cc(O)c2c(c1)OC(C)(CCC=C(C)C)C=C2 (stereo not drawn) [CBC, cannabichromene]
Anti-inflammatory effect (inflammation): enhanced anti-inflammatory effect

N[C@@H](Cc1ccccc1)C(=O)O [L-Phenylalanine, L-phenylalanine]
pKi [6]: 6.01
pIC50 ([1]; hippocampus and cortex): 3.01
